Values of other authors as cited in US20220249605A1, “Treatment of Mood and Anxiety Disorders” (Icahn School of Medicine At Mount Sinai, priority 2013, published 2022).
One block for each compound: values may come before it. Bridge positions count the residues as written; N and C are the ends. Ends that are not written are not given here.

Assays:
[1] = anesthetized rats and dogs
[2] = test system: Y1 receptor
[3] = biological target: T1, NPY Y2 receptor (Homo sapiens, UniProt P49146); conditions: read-out: IC50, Y2 receptor antagonist
T1 sequence (P49146 1-381): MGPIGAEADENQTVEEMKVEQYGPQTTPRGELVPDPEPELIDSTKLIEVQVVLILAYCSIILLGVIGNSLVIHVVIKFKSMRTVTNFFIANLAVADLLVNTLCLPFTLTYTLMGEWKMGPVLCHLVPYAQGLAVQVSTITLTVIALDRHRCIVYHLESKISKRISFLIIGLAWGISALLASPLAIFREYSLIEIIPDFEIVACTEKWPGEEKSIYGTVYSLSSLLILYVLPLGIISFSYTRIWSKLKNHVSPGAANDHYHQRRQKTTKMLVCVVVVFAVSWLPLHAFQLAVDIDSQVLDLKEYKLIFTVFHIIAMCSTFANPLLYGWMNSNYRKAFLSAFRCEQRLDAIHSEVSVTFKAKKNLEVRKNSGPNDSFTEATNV

[4] = biological target: T2, Y1 receptors (Homo sapiens, UniProt P25929)
T2 sequence (P25929 1-384): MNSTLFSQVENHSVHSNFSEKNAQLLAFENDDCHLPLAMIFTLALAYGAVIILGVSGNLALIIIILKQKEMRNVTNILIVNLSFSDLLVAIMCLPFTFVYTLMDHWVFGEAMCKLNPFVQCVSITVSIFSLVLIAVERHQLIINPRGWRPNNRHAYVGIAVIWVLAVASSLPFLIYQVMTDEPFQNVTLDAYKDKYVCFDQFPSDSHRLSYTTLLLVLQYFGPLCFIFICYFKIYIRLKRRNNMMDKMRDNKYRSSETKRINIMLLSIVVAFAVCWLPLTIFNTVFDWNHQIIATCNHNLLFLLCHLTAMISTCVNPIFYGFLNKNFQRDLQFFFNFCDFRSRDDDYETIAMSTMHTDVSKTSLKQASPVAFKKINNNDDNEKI

[5] = test system: norepinephrine-stimulated cAMP accumulation in SK-N-MC cells; conditions: read-out: EC50, inhibition of norepinephrine-stimulated cAMP accumulation
[6] = anesthetized rats

Compound: CN(C)S(=O)(=O)c1ccc(NC(=S)N2CCC(C(O)(c3ccccc3)c3ccccc3)CC2)cc1 [CYM 9484]
- IC50 [3]: 19 nM

Compound: (Leu^31, Pro^34)-Neuropeptide Y [H-3306]
- Specificity (Y1 receptor) [2]: Specific Y1 receptor

Compound: Tyr-Lys-Gly-(Cyclo(Glu^26-Lys^29), Pro^34)-Neuropeptide Y (25-36) (YKGREYIKLITRPRY; lactam 5-8; ends not checked) [H-3972]
- Ki [4]: 16 nM
- EC50 [5]: 12 nM

Further lines, with some results ahead:

- Specificity (Y1 receptor) [2]: selective NPY agonist
Compound: (Pro^34)-Neuropeptide Y [H-8580]
- Effect on blood pressure [1]: increased blood
- Inhibitory effects on cardiac vagal action [1]: contrast, showed no

- Specificity (Y1 receptor) [2]: selective ligand for
Compound: (Leu^31, Pro^34)-Neuropeptide Y [H-8575]
- Potency in increasing blood pressure compared with NPY [6]: showing an even higher
